Laboratory results reported in patent publication US20250387351A1 (SpringWorks Therapeutics, Inc, priority 2024, published 2025).

Experiments:
[1] = Pharmacokinetic parameters and characteristics of mirdametinib (Table A); type: in vivo, human
[2] = tested on: NF1-associated inoperable plexiform neurofibromas (PNs); experiment: Phase 2b trial: response of target PN by BICR volumetric MRI per REiNS criteria; type: in vivo, human; conditions: for Confirmed Objective Response Rate per REiNS criteria by BICR, n (%): 24-cycle treatment phase, BSA-based BID dose, 3 weeks on/1 week off; for Confirmed Partial Response, n (%): PR = ≥20% reduction in PN volume; for DoR ≥12 months: Kaplan-Meier based, data cut-off September 2023
Protocol: Participants were screened (assessed for eligibility as described below). […] The median age was 34.5 years (range 18 to 69 years); 85% were white and 64% were female. […] The most commonly reported morbidities were pain (90%) and disfigurement or major deformity (52%).
The median age was 10 years (range 2 to 17 years); 66% were white and 54% were female. […] The most commonly reported morbidities were pain (70%) and disfigurement or major deformity (50%).
Study treatment was administered orally at a twice daily (BID) dose specified in the table below. Dosing was on a 28-day Cycle (4-week course) with a 3 week on/1 week off schedule. The treatment period will last for up to 24 Cycles followed by a 30-day Safety Follow-Up period.
A partial response was defined as PN decrease ≥20% compared to baseline using centrally read MRI volumetric analysis.
The major efficacy outcome measure was confirmed objective response rate (ORR), defined as the percentage of patients with complete response (disappearance of the target PN) or confirmed partial response (≥20% reduction in PN volume confirmed at a subsequent tumor assessment within 2-6 months during the 24-cycle treatment phase). Responses were assessed by blinded independent central review (BICR) using volumetric magnetic resonance imaging (MRI) analysis per Response Evaluation in Neurofibromatosis and Schwannomatosis (REiNS) criteria. A secondary efficacy objective was to determine the duration of response for patients who achieved a confirmed objective response.

[3] = geometric least squares mean ratio, food effect

Structure (SMILES): O=C(NOC[C@H](O)CO)c1ccc(F)c(F)c1Nc1ccc(I)cc1F (single isomer, unassigned) [mirdametinib]
- Tmax [median (range)] ([1]; Capsule): Capsule: 1.08 (0.00-4.17) hours post dose
- Excretion: radioactivity in feces ([1]; In feces): In feces: 27%
- Excretion: radioactivity in urine ([1]; In urine): In urine: 68%
- Excretion: unchanged mirdametinib in urine ([1]; In urine): In urine: 0.7%
- Excretion: unchanged mirdametinib in urine and feces ([1]; In urine and feces): In urine and feces: 9%
- Tmax [median (range)] ([1]; Tablet): Tablet: 0.83 (0.42-3.02) hours post dose
- Food effect [GMR % (90% CI)] AUCinf [1, 3]: 93% (90%, 96%)
- Food effect [GMR % (90% CI)] Cmax [1, 3]: 57% (54%, 61%)
- Time to steady-state ([1]; in vivo): Approximately 6 days
- Confirmed Complete Response, n (%) ([2]; Adult (N = 58)): 0 n (%)
- Confirmed Objective Response Rate per REiNS criteria by BICR, n (%) ([2]; Adult (N = 58)): 24 (41) n (%)
- Confirmed Partial Response, n (%) ([2]; Adult (N = 58)): 24 (41) n (%)
- DoR ≥12 months ([2]; Adult responders): 18 (75%)
- Confirmed Complete Response, n (%) ([2]; Pediatric (N = 56)): 0 n (%)
- Confirmed Objective Response Rate per REiNS criteria by BICR, n (%) ([2]; Pediatric (N = 56)): 29 (52) n (%)
- Confirmed Partial Response, n (%) ([2]; Pediatric (N = 56)): 29 (52) n (%)
- DoR ≥12 months ([2]; Pediatric responders): 22 (76%)
- median time to onset of response ([2]; adult cohort (range: 4.0 months to 19.0 months)): 7.8 months
- ORR also considering confirmed objective responses after cycle 24 ([2]; adults (95% CI: 32, 59)): 45%
- median time to onset of response ([2]; pediatric cohort (range: 4.1 months to 18.8 months)): 7.9 months
- ORR also considering confirmed objective responses after cycle 24 ([2]; pediatric patients (95% CI: 40, 67)): 54%
